Data as given in the supplement of paper PMC11061612.

Key:
[1] = tested on: COLO-680N (Esophageal Squamous Cell Carcinoma); assay: Bliss excess, mean over the matrix (fraction); higher = more synergy
In short: (§1)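 Cell lines grown in DMEM/F12 or RPMI with 10% FBS were plated in 1536-well plates and held 24 hours at 37°C, 5% CO2 before 72 hours of exposure to two-drug dose matrices, with DMSO typically at 0.2%. CellTiter-Glo 2.0 luminescence gave viability, which was converted to inhibition. Vehicle wells were set to 0 and blank wells to 1. Combination Emax is the second-highest inhibition in the matrix, and Bliss excess is the observed combination effect minus the expected EA + EB − EA·EB, where EA and EB are the single-agent effects.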

[2] = tested on: HEC-1 (Endometrial Carcinoma); assay: as above
In short: as §1

[3] = tested on: NCI-H23 (Lung Adenocarcinoma); assay: as above
In short: as §1

[4] = tested on: 23132-87 (Gastric Carcinoma); assay: combination Emax (second highest fraction inhibited in the dose matrix, 72 h); higher = more inhibition; extreme values may be limits of the assay
In short: as §1

A2058 (Melanoma) = assay: as above
In short: as §1

[5] = tested on: HCT-15 (Colorectal Carcinoma); assay: as above
In short: as §1

[6] = tested on: HSC-39 (Gastric Carcinoma); assay: as above
In short: as §1

[7] = tested on: L-1236 (Hodgkin's Lymphoma); assay: as above
In short: as §1

LN-229 (Glioblastoma) = assay: as above
In short: as §1

[8] = tested on: LXF-289 (Lung Adenocarcinoma); assay: as above
In short: as §1

[9] = tested on: MKN45 (Gastric Carcinoma); assay: as above
In short: as §1

[10] = tested on: NCI-H446 (Small Cell Lung Carcinoma); assay: as above
In short: as §1

[11] = tested on: OVMIU (Ovarian Carcinoma); assay: as above
In short: as §1

[12] = tested on: PANC-03-27 (Pancreatic Carcinoma); assay: as above
In short: as §1

[13] = tested on: REH (B-Lymphoblastic Leukemia); assay: as above
In short: as §1

[14] = tested on: RERF-GC-1B (Gastric Carcinoma); assay: as above
In short: as §1

[15] = tested on: RERF-LC-Sq1 (Squamous Cell Lung Carcinoma); assay: as above
In short: as §1

[16] = tested on: SHP-77 (Small Cell Lung Carcinoma); assay: as above
In short: as §1

[17] = tested on: SK-PN-DW (Other Solid Carcinomas); assay: as above
In short: as §1

[18] = tested on: VAL (B-Cell Non-Hodgkin's Lymphoma); assay: as above
In short: as §1
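Wherever Bliss excess, mean over the matrix is given: after 72 h of two-drug dosing.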

SMILES | Bliss excess [1] | Bliss excess [2] | Bliss excess [3] | combination Emax [4] | combination Emax (A2058 (Melanoma)) | combination Emax [5] | combination Emax [6] | combination Emax [7] | combination Emax (LN-229 (Glioblastoma)) | combination Emax [8] | combination Emax [9] | combination Emax [10] | combination Emax [11] | combination Emax [12] | combination Emax [13] | combination Emax [14] | combination Emax [15] | combination Emax [16] | combination Emax [17] | combination Emax [18]
C[C@@H](c1ccc2nccn2c1)n1nnc2ncc(-c3cnn(C)c3)nc21 [Savolitinib] + CC1(C)CCC(CN2CCN(c3ccc(C(=O)NS(=O)(=O)c4ccc(NCC5CCOCC5)c([N+](=O)[O-])c4)c(Oc4cnc5[nH]ccc5c4)c3)CC2)=C(c2ccc(Cl)cc2)C1 [Venetoclax] (first compound max 1 µM, 7x7, partner max 1 µM) | -0.0115 | -0.0423 | -0.0486 | 0.147 | 0.107 | 0.12 | 0.197 | 0.416 | 0.0841 | 0.16 | 0.831 | 0.277 | 0.284 | 0.167 | 0.608 | 0.128 | 0.167 | 0.314 | 0.221 | 0.963
C[C@@H](c1ccc2nccn2c1)n1nnc2ncc(-c3cnn(C)c3)nc21 [Savolitinib] + Cc1c2c(nn1C)CSCc1cc(n(C)n1)CSc1cc(c3ccccc3c1)OCCCc1c(C(=O)O)n(C)c3c-2c(Cl)ccc13 [AZD5991] (first compound max 1 µM, 7x7, partner max 1 µM) | -0.0291 | -0.0541 | -0.0163 | 0.179 | 0.36 | 0.152 | 0.99 | 0.668 | 0.221 | 0.306 | 0.839 | 0.597 | 0.114 | 0.0558 | 0.806 | 0.788 | 0.173 | 0.34 | 0.766 | 0.564
Cn1cnc2c(F)c(Nc3ccc(Br)cc3Cl)c(C(=O)NOCCO)cc21 [Selumetinib] + C=CCn1c(=O)c2cnc(Nc3ccc(N4CCN(C)CC4)cc3)nc2n1-c1cccc(C(C)(C)O)n1 [AZD1775] (first compound max 10 µM, partner max 1 µM) | 0.0147 | -0.0448 | 0.0223 | 0.275 | 0.685 | 0.712 | 0.82 | 0.956 | 0.316 | 0.514 | 0.8 | 0.925 | 0.498 | 0.815 | 0.62 | 0.788 | 0.666 | 0.35 | 0.798 | 0.732
Cn1cnc2c(F)c(Nc3ccc(Br)cc3Cl)c(C(=O)NOCCO)cc21 [Selumetinib] + CC(C)n1c(=O)n(C)c2cnc3cc(F)c(-c4ccc(OCCCN5CCCCC5)nc4)cc3c21 [AZD1390] (first compound max 10 µM, 7x7, partner max 0.3 µM) | -0.0022 | -0.0412 | -0.0103 | 0.0937 | 0.426 | 0.155 | 0.201 | 0.301 | 0.153 | 0.146 | 0.61 | 0.262 | 0.402 | 0.42 | 0.0781 | 0.368 | 0.402 | 0.15 | 0.139 | 0.0806
Cn1cnc2c(F)c(Nc3ccc(Br)cc3Cl)c(C(=O)NOCCO)cc21 [Selumetinib] + CCN(CCO)CCCOc1ccc2c(Nc3cc(CC(=O)Nc4cccc(F)c4)[nH]n3)ncnc2c1 [AZD2811] (first compound max 10 µM, 7x7, partner max 1 µM) | -0.0324 | -0.0402 | 0.0194 | 0.104 | 0.649 | 0.28 | 0.903 | 0.289 | 0.286 | 0.514 | 0.674 | 0.91 | 0.407 | 0.534 | 0.604 | 0.436 | 0.535 | 0.362 | 0.572 | 0.678
Cn1cnc2c(F)c(Nc3ccc(Br)cc3Cl)c(C(=O)NOCCO)cc21 [Selumetinib] + C[C@@H]1COCCN1C2=NC(=NC(=C2)C3(CC3)[S@](=N)(=O)C)C4=C5C=CNC5=NC=C4 [AZD6738] (first compound max 10 µM, 7x7, partner max 10 µM) | -0.0258 | -0.0317 | 0.0385 | 0.429 | 0.83 | 0.753 | 0.994 | 0.839 | 0.552 | 0.591 | 0.782 | 0.85 | 0.476 | 0.599 | 0.684 | 0.522 | 0.786 | 0.569 | 0.915 | 0.746
CC(=O)Nc1cccc(-n2c(=O)n(C3CC3)c(=O)c3c(Nc4ccc(I)cc4F)n(C)c(=O)c(C)c32)c1 [Trametinib] + Cc1nc(-c2cn3c(n2)-c2ccc(-c4cnn(C(C)(C)C(N)=O)c4)cc2OCC3)n(C(C)C)n1 [Taselisib] (first compound max 1 µM, 7x7, partner max 10 µM) | 0.063 | 0.11 | 0.189 | 0.636 | 1 | 0.756 | 1 | 0.513 | 0.803 | 0.963 | 0.799 | 0.94 | 0.973 | 0.982 | 0.544 | 0.949 | 0.981 | 0.459 | 0.695 | 0.424
CC1(C)CCC(CN2CCN(c3ccc(C(=O)NS(=O)(=O)c4ccc(NCC5CCOCC5)c([N+](=O)[O-])c4)c(Oc4cnc5[nH]ccc5c4)c3)CC2)=C(c2ccc(Cl)cc2)C1 [Venetoclax] + C1CN(CCC1(C(=O)N[C@@H](CCO)C2=CC=C(C=C2)Cl)N)C3=NC=NC4=C3C=CN4 [Capivasertib] (first compound max 1 µM, 7x7, partner max 3 µM) | -0.0482 | -0.0465 | -0.0081 | 0.0322 | 0.323 | 0.254 | 0.956 | 0.644 | 0.086 | 0.204 | 0.581 | 0.561 | 0.285 | 0.626 | 0.936 | 0.335 | 0.663 | 0.402 | 0.882 | 1
CC1(C)CCC(CN2CCN(c3ccc(C(=O)NS(=O)(=O)c4ccc(NCC5CCOCC5)c([N+](=O)[O-])c4)c(Oc4cnc5[nH]ccc5c4)c3)CC2)=C(c2ccc(Cl)cc2)C1 [Venetoclax] + C=CCn1c(=O)c2cnc(Nc3ccc(N4CCN(C)CC4)cc3)nc2n1-c1cccc(C(C)(C)O)n1 [AZD1775] (first compound max 1 µM, partner max 1 µM) | -0.0402 | -0.0569 | -0.0533 | 0.36 | 0.413 | 0.47 | 1 | 0.865 | 0.292 | 0.575 | 0.765 | 0.943 | 0.682 | 0.855 | 1 | 0.753 | 0.586 | 0.733 | 0.955 | 1
CC1(C)CCC(CN2CCN(c3ccc(C(=O)NS(=O)(=O)c4ccc(NCC5CCOCC5)c([N+](=O)[O-])c4)c(Oc4cnc5[nH]ccc5c4)c3)CC2)=C(c2ccc(Cl)cc2)C1 [Venetoclax] + CCN(CCO)CCCOc1ccc2c(Nc3cc(CC(=O)Nc4cccc(F)c4)[nH]n3)ncnc2c1 [AZD2811] (first compound max 1 µM, 7x7, partner max 1 µM) | -0.0166 | -0.0262 | -0.0051 | 0.152 | 0.402 | 0.178 | 0.981 | 0.718 | 0.208 | 0.389 | 0.588 | 0.894 | 0.289 | 0.673 | 1 | 0.298 | 0.361 | 0.64 | 0.872 | 1
CC1(C)CCC(CN2CCN(c3ccc(C(=O)NS(=O)(=O)c4ccc(NCC5CCOCC5)c([N+](=O)[O-])c4)c(Oc4cnc5[nH]ccc5c4)c3)CC2)=C(c2ccc(Cl)cc2)C1 [Venetoclax] + CN(C)CCCOc1ccc(-c2ccc3ncc4c(c3c2)n(C2CCOCC2)c(=O)n4C)cn1 [AZD0156] (first compound max 1 µM, 7x7, partner max 1 µM) | -0.014 | 0.0064 | -0.0114 | 0.157 | 0.226 | 0.226 | 0.926 | 0.705 | 0.212 | 0.245 | 0.688 | 0.304 | 0.345 | 0.684 | 0.908 | 0.242 | 0.229 | 0.424 | 0.825 | 1
CC1(C)CCC(CN2CCN(c3ccc(C(=O)NS(=O)(=O)c4ccc(NCC5CCOCC5)c([N+](=O)[O-])c4)c(Oc4cnc5[nH]ccc5c4)c3)CC2)=C(c2ccc(Cl)cc2)C1 [Venetoclax] + COc1cc(Nc2ncc3c(n2)-c2ccc(Cl)cc2C(c2c(F)cccc2OC)=NC3)ccc1C(=O)O [Alisertib] (first compound max 1 µM, 7x7, partner max 10 µM) | -0.0427 | -0.0385 | 0.14 | 0 | 0.612 | 0.537 | 0.992 | 0.678 | 0.2 | 0.643 | 0.563 | 0.909 | 0.522 | 0.56 | 0.99 | 0.688 | 0.42 | 0.719 | 0.882 | 1
